The values below come from patent US8299048B2, “Hexahydrocyclopentyl[f]indazole sulfonamides and derivatives thereof as selective glucocorticoid receptor modulators” (Merck Sharp & Dohme Corp., priority 2008, dated 2012).

Where two headings read alike, the source gives them in different places.

The experiment concerns the target T1, human GR (Homo sapiens, UniProt P04150).
T1 sequence (P04150 1-777): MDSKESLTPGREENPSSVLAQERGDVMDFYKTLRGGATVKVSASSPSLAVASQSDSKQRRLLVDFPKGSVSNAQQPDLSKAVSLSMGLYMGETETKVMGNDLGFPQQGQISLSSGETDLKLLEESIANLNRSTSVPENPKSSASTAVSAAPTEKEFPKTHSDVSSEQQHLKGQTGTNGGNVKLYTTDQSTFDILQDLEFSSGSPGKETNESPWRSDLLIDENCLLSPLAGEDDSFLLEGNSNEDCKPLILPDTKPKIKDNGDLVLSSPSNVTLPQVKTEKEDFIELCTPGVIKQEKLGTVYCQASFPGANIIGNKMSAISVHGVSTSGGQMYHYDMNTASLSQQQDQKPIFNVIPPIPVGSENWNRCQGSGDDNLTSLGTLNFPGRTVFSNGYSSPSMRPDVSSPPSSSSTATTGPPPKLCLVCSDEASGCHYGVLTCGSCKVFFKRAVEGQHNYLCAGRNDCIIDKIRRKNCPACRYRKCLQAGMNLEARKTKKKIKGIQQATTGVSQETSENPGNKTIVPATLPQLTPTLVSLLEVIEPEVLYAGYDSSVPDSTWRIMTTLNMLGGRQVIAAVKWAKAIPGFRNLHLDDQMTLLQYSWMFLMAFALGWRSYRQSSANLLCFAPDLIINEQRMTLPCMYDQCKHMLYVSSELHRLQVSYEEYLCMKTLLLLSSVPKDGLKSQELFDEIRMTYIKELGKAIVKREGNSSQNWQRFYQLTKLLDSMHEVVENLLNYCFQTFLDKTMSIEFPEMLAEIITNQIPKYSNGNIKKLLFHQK
The experiment can be described thus: Transrepression Assay (GITAR), TNFα-β-lactamase reporter in U937 cells. In kind it is cell-based. Set-up: U937 cells contain an endogenous glucocorticoid receptor (GR); endogenous in cells; host or cells: U937 cells stably transfected with the TNF-alpha promoter/beta-lactamase reporter. The following applies: for GITAR > GRAMM % SEP: GITAR Emax minus GRAMMER Emax; for EC50: U937 cells, inflection point, read-out: Transrepression U937 Cells GITAR IP. Summed up: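 First, U937 reporter cells (TNF-α promoter–β-lactamase, native GR) received compound for 30–45 min at 37 °C. Next, PMA (5 ng/ml) and LPS (100 ng/ml) final were added for about 18 hr. Finally, CCF2-AM loading gave the read-out, with 100 nM dexamethasone as 100%.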

The mark [1] stands for this setting: U-937, U937 cells, maximum activity, read-out: Transrepression U937 Cells GITAR Emax.
The mark [2] stands for this setting: U-937, activity repressed by 100 nM dexamethasone alone set as 100%, read-out: maximal activity in the transrepression (GITAR) assay.

Turning to `C[C@@H](O)CN(C[C@H]1CCC2=Cc3c(cnn3-c3ccc(F)cc3)C[C@@]21C)S(=O)(=O)c1ccc(F)c(Cl)c1` [Example 115, 3-chloro-4-fluoro-N-{[(4αR,5S)-1-(4-fluorophenyl)-4α-methyl-1,4,4α,5,6,7-hexahydrocyclopenta[f]indazol-5-yl]methyl}-N-[(2R)-2-hydroxypropyl]benzenesulfonamide], the “GITAR > GRAMM % SEP” value stood at 31.2% and the EC50 is 643 nM. For the same compound, the Emax under setting [1] came to 57.4%. Also, the Emax under setting [2] was over 5%.

As for `C[C@]12Cc3cnn(-c4ccc(F)cc4)c3C=C1CC[C@@H]2CN(CCc1ccccc1O)S(=O)(=O)c1ccccc1F` [Example 116, 2-fluoro-N-{[(4αR,5S)-1-(4-fluorophenyl)-4α-methyl-1,4,4α,5,6,7-hexahydrocyclopenta[f]indazol-5-yl]methyl}-N-[2-(2-hydroxyphenyl)ethyl]benzenesulfonamide], the “GITAR > GRAMM % SEP” value is given as 7.7% and the EC50 amounted to 94.9 nM. Also, the Emax under setting [1] was 81.2%. The Emax under setting [2] is over 5%.

Regarding `C[C@]12Cc3cnn(-c4ccc(F)cc4)c3C=C1CC[C@@H]2CN(CCO)S(=O)(=O)c1ccccc1C(N)=O` [Example 117, 2-{[{[(4αR,5S)-1-(4-fluorophenyl)-4α-methyl-1,4,4α,5,6,7-hexahydrocyclopenta[f]indazol-5-yl]methyl}(2-hydroxyethyl)amino]sulfonyl}benzamide], the “GITAR > GRAMM % SEP” value came to 28.6% and the EC50 amounted to 533 nM. In addition, the Emax under setting [1] was determined as 73.7%. The Emax under setting [2] was over 5%.

For the compound `COCCN(C[C@H]1CCC2=Cc3c(cnn3-c3ccc(F)cc3)C[C@@]21C)S(=O)(=O)CCN1C(=O)c2ccccc2C1=O` [Example 118, 2-(1,3-dioxo-1,3-dihydro-2H-isoindol-2-yl)-N-{[(4αR,5S)-1-(4-fluorophenyl)-4α-methyl-1,4,4α,5,6,7-hexahydrocyclopenta[f]indazol-5-yl]methyl}-N-(2-methoxyethyl)ethanesulfonamide], the “GITAR > GRAMM % SEP” value turned out to be 25.4% and the EC50 was 1050 nM. Besides, the Emax under setting [1] was determined as 34.1%. Further, the Emax under setting [2] is over 5%.

Consider `COc1ccccc1CCN(C[C@H]1CCC2=Cc3c(cnn3-c3ccc(F)cc3)C[C@@]21C)S(=O)(=O)Cc1cccc(C(F)(F)F)c1` [Example 119, N-{[(4αR,5S)-1-(4-fluorophenyl)-4α-methyl-1,4,4α,5,6,7-hexahydrocyclopenta[f]indazol-5-yl]methyl}-N-[2-(2-methoxyphenyl)ethyl]-1-[3-(trifluoromethyl)phenyl]methanesulfonamide], for which the “GITAR > GRAMM % SEP” value is 9.3% and the EC50 came out at 605 nM. In addition, the Emax under setting [1] amounted to 15.9%. The Emax under setting [2] is over 5%.

In the case of `COc1ccccc1CCN(C[C@H]1CCC2=Cc3c(cnn3-c3ccc(F)cc3)C[C@@]21C)S(=O)(=O)CC(F)(F)F` [Example 120, 2,2,2-trifluoro-N-{[(4αR,5S)-1-(4-fluorophenyl)-4α-methyl-1,4,4α,5,6,7-hexahydrocyclopenta[f]indazol-5-yl]methyl}-N-[2-(2-methoxyphenyl)ethyl]ethanesulfonamide], the “GITAR > GRAMM % SEP” value turned out to be 18.2% and the EC50 is 77.8 nM. In addition, the Emax under setting [1] was 91.5%. Under setting [2], the Emax was over 5%.

In the case of `C[C@]12Cc3cnn(-c4ccc(F)cc4)c3C=C1CC[C@@H]2CN(CCc1ccccc1F)S(=O)(=O)CCN1C(=O)c2ccccc2C1=O` [Example 121, 2-(1,3-dioxo-1,3-dihydro-2H-isoindol-2-yl)-N-[2-(2-fluorophenyl)ethyl]-N-{[(4αR,5S)-1-(4-fluorophenyl)-4α-methyl-1,4,4α,5,6,7-hexahydrocyclopenta[f]indazol-5-yl]methyl}ethanesulfonamide], the “GITAR > GRAMM % SEP” value is reported as 17.9% and the EC50 is 156 nM. The Emax under setting [1] was 33.8%. In addition, under setting [2], the Emax was over 5%.

As for `C[C@]12Cc3cnn(-c4ccc(F)cc4)c3C=C1CC[C@@H]2CN(CCc1ccccc1O)S(=O)(=O)Cc1cccc(C(F)(F)F)c1` [Example 122, N-{[(4αR,5S)-1-(4-fluorophenyl)-4α-methyl-1,4,4α,5,6,7-hexahydrocyclopenta[f]indazol-5-yl]methyl}-N-[2-(2-hydroxyphenyl)ethyl]-1-[3-(trifluoromethyl)phenyl]methanesulfonamide], the “GITAR > GRAMM % SEP” value was 30.8% and the EC50 worked out at 417 nM. Under setting [1], the Emax is 39.7%. In addition, under setting [2], the Emax is over 5%.

On to `Cc1noc(C)c1S(=O)(=O)N(CCc1ccccc1O)C[C@H]1CCC2=Cc3c(cnn3-c3ccc(F)cc3)C[C@@]21C` [Example 123, N-{[(4αR,5S)-1-(4-fluorophenyl)-4α-methyl-1,4,4α,5,6,7-hexahydrocyclopenta[f]indazol-5-yl]methyl}-N-[2-(2-hydroxyphenyl)ethyl]-3,5-dimethylisoxazole-4-sulfonamide], for which the “GITAR > GRAMM % SEP” value is recorded as 25.4% and the EC50 stood at 128 nM. Under setting [1], the Emax came out at 90.8%. Under setting [2], the Emax was over 5%.

For `C[C@]12Cc3cnn(-c4ccc(F)cc4)c3C=C1CC[C@@H]2CN(CCc1ccccc1F)S(=O)(=O)Cc1cccnc1` [Example 124, N-[2-(2-fluorophenyl)ethyl]-N-{[(4αR,5S)-1-(4-fluorophenyl)-4α-methyl-1,4,4α,5,6,7-hexahydrocyclopenta[f]indazol-5-yl]methyl}-1-pyridin-3-ylmethanesulfonamide], the “GITAR > GRAMM % SEP” value came to 1.3% and the EC50 was determined as 251 nM. The Emax under setting [1] was found to be 100%. In addition, under setting [2], the Emax was over 5%.

As for `COc1ccccc1CCN(C[C@H]1CCC2=Cc3c(cnn3-c3ccc(F)cc3)C[C@@]21C)S(=O)(=O)Cc1cccnc1` [Example 125, N-{[(4αR,5S)-1-(4-fluorophenyl)-4α-methyl-1,4,4α,5,6,7-hexahydrocyclopenta[f]indazol-5-yl]methyl}-N-[2-(2-methoxyphenyl)ethyl]-1-pyridin-3-ylmethanesulfonamide], the “GITAR > GRAMM % SEP” value is 34.1% and the EC50 was 575 nM. The Emax under setting [1] is 55.3%. Further, under setting [2], the Emax is over 5%.

With `COc1cccc(CCN(C[C@H]2CCC3=Cc4c(cnn4-c4ccc(F)cc4)C[C@@]32C)S(=O)(=O)CC(F)(F)F)c1` [Example 126, 2,2,2-trifluoro-N-{[(4αR,5S)-1-(4-fluorophenyl)-4α-methyl-1,4,4α,5,6,7-hexahydrocyclopenta[f]indazol-5-yl]methyl}-N-[2-(3-methoxyphenyl)ethyl]ethanesulfonamide], the “GITAR > GRAMM % SEP” value was found to be 11.7% and the EC50 is 233 nM. Besides, the Emax under setting [1] stood at 90%. In addition, under setting [2], the Emax was over 5%.

In the case of `COc1ccc(CCN(C[C@H]2CCC3=Cc4c(cnn4-c4ccc(F)cc4)C[C@@]32C)S(=O)(=O)CC(F)(F)F)cc1` [Example 127, 2,2,2-trifluoro-N-{[(4αR,5S)-1-(4-fluorophenyl)-4α-methyl-1,4,4α,5,6,7-hexahydrocyclopenta[f]indazol-5-yl]methyl}-N-[2-(4-methoxyphenyl)ethyl]ethanesulfonamide], the “GITAR > GRAMM % SEP” value worked out at 15.1% and the EC50 is 202 nM. For the same compound, the Emax under setting [1] amounted to 83%. Moreover, the Emax under setting [2] was over 5%.

For the compound `C[C@]12Cc3cnn(-c4ccc(F)cc4)c3C=C1CC[C@@H]2CN(CCc1ccccn1)S(=O)(=O)CC(F)(F)F` [Example 128, 2,2,2-trifluoro-N-{[(4αR,5S)-1-(4-fluorophenyl)-4α-methyl-1,4,4α,5,6,7-hexahydrocyclopenta[f]indazol-5-yl]methyl}-N-(2-pyridin-2-ylethyl)ethanesulfonamide], the “GITAR > GRAMM % SEP” value is on record as 19.3% and the EC50 came out at 324 nM. For the same compound, under setting [1], the Emax was 88.4%. Under setting [2], the Emax is over 5%.

For the compound `C[C@]12Cc3cnn(-c4ccc(F)cc4)c3C=C1CC[C@@H]2CN(CCc1ccncc1)S(=O)(=O)CC(F)(F)F` [Example 129, 2,2,2-trifluoro-N-{[(4αR,5S)-1-(4-fluorophenyl)-4α-methyl-1,4,4α,5,6,7-hexahydrocyclopenta[f]indazol-5-yl]methyl}-N-(2-pyridin-4-ylethyl)ethanesulfonamide], the “GITAR > GRAMM % SEP” value was 11.9% and the EC50 stood at 623 nM. For the same compound, the Emax under setting [1] worked out at 79.1%. The Emax under setting [2] is over 5%.
